The values that follow come from US20210251226A1, “METHOD AND COMPOSITION FOR INHIBITING THE GROWTH OF PSEUDOMONAS SYRINGAE ON A PLANT MATERIAL, AND KIT FOR TREATING THE SAME” (City University of Hong Kong, priority 2020, published 2021).

Series [1] relates to wild-type P. syringae pv. tomato. Particulars: 6 day post inoculation. How it is done:
To study the effect of concentration of NaAc on inhibiting growth of P. syringae, 2×10^4 CFU/ml of wild-type P. syringae pv. tomato bacteria were injected into the tomato leaves. Then, the inoculated leaves were sprayed with water and 0.1-100 mM NaAc. Three 1 cm^2 leaf disks at 6 day post inoculation were homogenated and diluted in water to count bacterial CFUs.

Series [2] deals with P. syringae. Nature of the series: Toxicity to P. syringae liquid culture (CFU count). Conditions: liquid culture treated 2 hours. As to the method:
To study whether the optimized NaAc recipe is toxic to P. syringae, a P. syringae liquid culture was treated with 0.1 mM FeAc, 100 mM NaAc, and the optimized recipe (1 mM NaAc and 0.1 mM FeAc) respectively for 2 hours. The treated and control (untreated) cultures were then diluted for counting bacterial CFUs.

The subject of series [3] is wild-type P. syringae.
In series [4] the test system is bean leaf. Nature of the series: Toxicity to host plant leaves after injection. How it is done: Furthermore, to study whether the optimized NaAc recipe is toxic to a host plant, aqueous solutions of 0.1 mM FeAc, 100 mM NaAc, and the optimized recipe (1 mM NaAc and 0.1 mM FeAc) were respectively injected into tomato and bean leaves and inoculated for 6 days.
Series [5] deals with wild-type P. syringae. Particulars: 10 mM NaAc, 6 days after inoculation, 2×10^4 CFU/ml.
Series [6] has as its system P. syringae. Conditions: conventional agent, comparison; cited from earlier work.
In series [7] the test system is hrpL. Description: hrpL-lux activity (hrpL expression) in wild-type P. syringae. The format is cell-based. Conditions: 1 mM of each salt. How it is done: To study the inhibitory effect of different acetate salts to inhibit P. syringae, 1 mM of 12 acetate salts was tested on the expression of hrpL, namely on hrpL-lux activities, in the wild-type P. syringae. The 12 acetate salts included acetate salts of lithium (Li), potassium (K), magnesium (Mg), sodium (Na), calcium (Ca), manganese (Mn), aluminium (Al), nickel (Ni), acetic acid (denoted as HAc), copper (Cu), ammonium (NH4), and iron (Fe).

Consider `CC(=O)[O-].[Na+]` [NaAc, sodium acetate], for which the “difference in bacterial CFU between water control and NaAc spray” value in series [1] (tomato leaf, 0.1-100 mM spray, P<0.05) was “significant”. The “best concentration for reducing bacterial growth” value in series [1] (tomato, of concentrations from 0.1 mM to 100 mM) is listed as 100 mM. The “toxicity to P. syringae” value in series [2] is “not toxic”. Further, the “bacterial pathogenicity (disease symptoms) on tomato leaf” value in series [3] (10 mM NaAc, 6 days after inoculation, 2×10^4 CFU/ml) is on record as “significantly reduced bacterial pathogenicity”. Besides, the “concentration removing infection symptom” value in series [3] (host plant not named at this place) was determined as 10 mM. Moreover, in series [4] (injected into leaf, 6 days), the “toxicity to host plant leaf” value was “not toxic”. Besides, the “toxicity or resistance on plant” value in series [4] (plant) is “no toxicity or resistance on plant”. In addition, in series [5], the “bacterial pathogenicity (disease symptoms) on bean leaf” value is “significantly reduced bacterial pathogenicity”.

As to `O=S(=O)([O-])[O-].[Cu+2]` [copper sulfate], in series [6], the “minimum inhibitory concentration (MIC)” value is 3000 µM.

As for `CC(=O)[O-].CC(=O)[O-].[Fe+2]` [iron acetate], the “inhibitory effect on hrpL-lux activities, rank among 12 acetate salts” value in series [7] is reported as “best inhibitory effect”.

For the compound `[H]/N=C(/N)N[C@H]1[C@H](O)[C@@H](O)[C@H](O[C@@H]2O[C@@H](C)[C@](O)(C=O)[C@H]2O[C@@H]2O[C@@H](CO)[C@H](O)[C@@H](O)[C@@H]2NC)[C@@H](N/C(N)=N\[H])[C@@H]1O` [streptomycin], the “minimum inhibitory concentration (MIC)” value in series [6] was 1000 µg/mL.
